Values quoted from earlier work as cited in patent US20250186477A1, “COMPOSITIONS COMPRISING FLUDARABINE PHOSPHATE AND METHODS OF MAKING AND USING SAME TO TREAT CANCER” (Areva Pharmaceuticals Limited, priority 2023, published 2025).

Settings: refractory chronic lymphocytic leukemia patients receiving 22-40 mg/m^2 or 15-25 mg/m^2 fludarabine daily

Nc1nc(F)nc2c1ncn2[C@@H]1O[C@H](CO)[C@@H](O)[C@@H]1O [fludarabine, (2R,3S,4S,5R)-2-(6-amino-2-fluoropurin-9-yl)-5-(hydroxymethyl)oxolane-3,4-diol]
pneumonia: high rates of pneumonia
